Like-named read-outs stand apart in the source and are kept apart here.
Tested on: Haemonchus contortus
Experiment: Efficacy against Haemonchus contortus in jirds
Type: in vivo
Settings: 72 h, jirds (Meriones unguiculatus), necropsy three days after treatment, read-out: reduction of the Haemonchus contortus count (mean larvae count in stomach vs untreated control group)
Description: Compounds according to this invention (numbers refer to the compound number in Table 1) were tested in vivo using Haemonchus contortus in jirds (Meriones unguiculatus). The jirds were orally infected with approximately 750-3.000 third-stage larvae of Haemonchus contortus. Ten days after infection, the jirds in the treatment groups were treated once either orally or subcutaneously with compounds at a dose of 10 mg or 50 mg per kg bodyweight. Three days after treatment, the jirds were necropsied, and the larvae burden in the stomach was determined. During the study no side-effects in jirds were observed. The efficacy was defined as the reduction of the mean larvae count in the infected jirds of the treatment group in comparison to the infected jirds in an untreated control group (negative control).

[1] = sc, treated once subcutaneously at 50 mg/kg bw ten days after infection
[2] = po, treated once orally at 10 mg/kg ten days after infection
[3] = po, treated once orally at 50 mg/kg bw ten days after infection

| Structure (SMILES) | inhibition in vivo at 50 mg/kg [1] [%] | inhibition in vivo at 10 mg/kg [2] [%] | also measured |
| --- | --- | --- | --- |
| O=C(c1ccnc(Cl)c1)N1CC2(CCN(C/C=C/c3ccc(Cl)c(Cl)c3)CC2)c2cc(Cl)ccc21 [Compound 27] | ≥ 50 | – | – |
| Cc1ccc2c(c1)C1(CCN(C/C=C/c3ccc(Cl)cc3F)CC1)CN2C(=O)c1ccnc(Cl)c1 [Compound 87] | – | ≥ 50 | – |
| O=C(c1ccnc(Cl)c1)N1CC2(CCN(C/C=C/c3ccc(F)cc3F)CC2)c2c1ccc(Cl)c2Cl [Compound 20] | ≥ 50 | – | – |
| O=C(c1ccnc(Cl)c1)N1CC2(CCN(C/C=C/c3ccc(F)cc3F)CC2)c2cc(C(F)(F)F)ccc21 [Compound 12] | – | – | inhibition in vivo at 50 mg/kg [3]: ≥ 50% |
| Cc1ccc2c(c1)C1(CCN(C/C=C/c3ccc(Cl)c(Cl)c3)CC1)CN2C(=O)c1ccnc(Cl)c1 [Compound 71] | – | – | inhibition in vivo at 10 mg/kg (sc, treated once subcutaneously at 10 mg/kg ten days after infection): ≥ 50% |
| O=C(c1ccnc(Cl)c1)N1CC2(CCN(C/C=C/c3ccc(F)cc3F)CC2)c2c(Cl)cc(Cl)cc21 [Compound 19] | – | – | inhibition in vivo at 50 mg/kg [3]: ≥ 50% |
| O=C(c1ccnc(Cl)c1)N1CC2(CCN(C/C=C/c3cccc(Cl)c3Cl)CC2)c2cc(Cl)ccc21 [Compound 25, [5-chloro-1′-[(E)-3-(2,3-dichlorophenyl)allyl]spiro[indoline-3,4′-piperidine]-1-yl]-(2-chloro-4-pyridyl)methanone] | ≥ 50 | – | – |
| O=C(c1ccnc(Cl)c1)N1CC2(CCN(C/C=C/c3ccc(Cl)cc3)CC2)c2cc(C(F)(F)F)ccc21 [Compound 42] | – | ≥ 50 | – |
| O=C(c1ccnc(Cl)c1)N1CC2(CCN(C/C=C/c3ccc(Cl)c(Cl)c3)CC2)c2cc(SC(F)(F)F)ccc21 [Compound 77] | – | ≥ 50 | – |

— US9598412B2, “Spiroindoline compounds for use as anthelminthics” (Intervet, Inc., priority 2010, dated 2017)
